# Reference: patent US6796312B2, “Process and apparatus for the removal of toxic components of tobacco smoke and the standardization of the health hazards related to those components” (priority 2001, dated 2004)
# Test: Non-enzymatic oxidation of NADH2 by aged NDGA solutions
# Description: Oxidation of reduced nicotinamide-adenine dinucleotide by nordihydroguaiaretic acid in the presence of PO4 buffer at pH 7.0 occurs at a slow rate, (See Burk and Woods (1963) and references to findings of […]. and […]. reported therein). Although this oxidation was very small under the conditions of experiment, an interaction correction factor was determined and applied to all reduced nicotinamide-adenine dinucleotide-nordihydroguaiaretic acid-mycloperoxidase assay reactions. [table] The effect of aging nordihydroguaiaretic acid solutions (0.5 mg. nordihydroguaiaretic acid dissolved in 0.02 ml. of ethyl alcohol plus 0.98 ml. of 0.15 Molar Na2HPO4.KH2PO4 buffer, pH 7.0) on the oxidation of reduced nicotinamide-adenine dinucleotide by nordihydroguaiaretic acid is shown above in Table VI. At 35° C., the latter undergoes a slow visible auto-oxidation change, from a near colorless solution (the reduced form of the orthoquinone) immediately after preparation, to a yellow brown colloidal suspension (probably the quinone form) with the yellow-brown material tending to precipitate slowly during the course of several hours. The sedimentation of nordihydroguaiaretic acid and its accumulation and adherence upon the inner glass surface of test tubes was avoided by shaking the solution periodically. The slow oxidation of reduced nicotinamide-adenine dinucleotide by nordihydroguaiaretic acid during the first forty-five (45) minutes can be more than twice the rate of subsequent time periods. Once the lowest rate of oxidation of reduced nicotinamide-adenine dinucleotide is achieved by the aging of nordihydroguaiaretic acid solutions, it remains constant for at least eight (8) hours.
smiles,measurement,setting,value
"CC(Cc1ccc(O)c(O)c1)C(C)Cc1ccc(O)c(O)c1 (stereo not drawn) [NDGA, beta, gamma-dimethyl-alpha, ortho-bis (3,4 dihydroxiphenyl) butane]",Rate of Oxidation of NADH2,"NDGA solution aged 10 minutes at 35° C., pH 7.0, Experiment 3",.017 Optical Density (O.D.) Units per 100 Seconds
same,Rate of Oxidation of NADH2,"NDGA solution aged 15 minutes, Experiment 2",.020 Optical Density (O.D.) Units per 100 Seconds
same,Rate of Oxidation of NADH2,"NDGA solution aged 45 minutes, Experiment 1",.027 Optical Density (O.D.) Units per 100 Seconds
same,Rate of Oxidation of NADH2,"NDGA solution aged 60 minutes, Experiment 3",.013 Optical Density (O.D.) Units per 100 Seconds
same,Rate of Oxidation of NADH2,"NDGA solution aged 110 minutes, Experiment 1",.011 Optical Density (O.D.) Units per 100 Seconds
same,Rate of Oxidation of NADH2,"NDGA solution aged 120 minutes, Experiment 3",.011 Optical Density (O.D.) Units per 100 Seconds
same,Rate of Oxidation of NADH2,"NDGA solution aged 140 minutes, Experiment 2",.014 Optical Density (O.D.) Units per 100 Seconds
same,Rate of Oxidation of NADH2,"NDGA solution aged 175 minutes, Experiment 1",.012 Optical Density (O.D.) Units per 100 Seconds
same,Rate of Oxidation of NADH2,"NDGA solution aged 180 minutes, Experiment 3",.012 Optical Density (O.D.) Units per 100 Seconds
same,Rate of Oxidation of NADH2,"NDGA solution aged 215 minutes, Experiment 2",.014 Optical Density (O.D.) Units per 100 Seconds
same,Rate of Oxidation of NADH2,"NDGA solution aged 240 minutes, Experiment 3",.012 Optical Density (O.D.) Units per 100 Seconds
same,Rate of Oxidation of NADH2,"NDGA solution aged 270 minutes, Experiment 1",.011 Optical Density (O.D.) Units per 100 Seconds
same,Rate of Oxidation of NADH2,"NDGA solution aged 285 minutes, Experiment 2",.014 Optical Density (O.D.) Units per 100 Seconds
same,Rate of Oxidation of NADH2,"NDGA solution aged 323 minutes, Experiment 1",.011 Optical Density (O.D.) Units per 100 Seconds
same,Rate of Oxidation of NADH2,"NDGA solution aged 380 minutes, Experiment 3",.011 Optical Density (O.D.) Units per 100 Seconds
same,Rate of Oxidation of NADH2,"NDGA solution aged 440 minutes, Experiment 3",.011 Optical Density (O.D.) Units per 100 Seconds
same,Rate of Oxidation of NADH2,"NDGA solution aged 485 minutes, Experiment 3",.010 Optical Density (O.D.) Units per 100 Seconds
